The values that follow come from patent US20240360146A1, “BRUTON'S TYROSINE KINASE AND MUTANT DEGRADER, COMPOSITION AND APPLICATION THEREOF” (HANGZHOU HEALZEN THERAPEUTICS CO., LTD., priority 2021, published 2024).

The DC50 is the concentration giving 50% degradation.

The structures appear in SMILES notation.

The assay has as its target T1, BTK (Homo sapiens, UniProt Q06187).
T1 construct: endogenous in cells; host or cells: Mino cells
In words: BTK degradation activity test in Mino cells. Particulars: 16 h incubation, Western blot or Elisa. Format: cell-based. The method, then:
Mino cell line cells were seeded at 500,000 to 1,000,000 cells/well in a 6-well plate. The compounds were diluted to different concentrations and added to the plate, and after 16 h of incubation, cells were harvested. After lysing the cells, the total protein concentration in each well was determined using the BCA method. The amount of BTK was determined using Western blot or Elisa method. The amount of undegraded BTK protein at each drug concentration was compared with the amount of BTK protein in the blank control group to calculate the degradation rate. The degradation curve was drawn based on the degradation rate at each concentration, and the half degradation concentration (DC50) was calculated by fitting.

T1 sequence (Q06187 whole entry): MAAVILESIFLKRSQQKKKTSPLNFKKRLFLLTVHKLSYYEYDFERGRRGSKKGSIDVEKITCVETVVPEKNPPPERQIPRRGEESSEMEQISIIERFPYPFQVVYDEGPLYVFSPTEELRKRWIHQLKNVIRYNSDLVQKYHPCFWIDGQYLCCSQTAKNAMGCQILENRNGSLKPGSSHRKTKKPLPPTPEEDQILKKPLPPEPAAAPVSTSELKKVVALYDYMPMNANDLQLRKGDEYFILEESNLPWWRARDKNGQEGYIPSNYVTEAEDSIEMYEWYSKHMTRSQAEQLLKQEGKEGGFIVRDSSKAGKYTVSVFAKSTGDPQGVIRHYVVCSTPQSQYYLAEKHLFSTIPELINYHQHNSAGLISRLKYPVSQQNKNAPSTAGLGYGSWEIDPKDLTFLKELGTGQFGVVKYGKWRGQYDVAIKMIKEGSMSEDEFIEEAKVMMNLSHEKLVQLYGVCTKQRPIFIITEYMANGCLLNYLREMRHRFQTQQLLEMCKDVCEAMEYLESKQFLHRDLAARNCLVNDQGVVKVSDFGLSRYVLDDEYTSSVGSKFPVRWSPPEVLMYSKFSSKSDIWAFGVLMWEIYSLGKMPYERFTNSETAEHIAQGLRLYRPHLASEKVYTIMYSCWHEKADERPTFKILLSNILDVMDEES

`CC1(c2ccc(Nc3nc(N4CCCC(N5CCN(C6CCCC6)C5=O)C4)cnc3C(N)=O)cc2)CCN(C2CN(c3ccc4c(c3)C(=O)N(C3CCC(=O)NC3=O)C4=O)C2)CC1` (centres unmarked) [Compound 001, 5-(3-(3-cyclopentyl-2-oxoimidazolin-1-yl)piperidin-1-yl)-3-((4-(1-(1-(2-(2,6-dioxopiperidin-3-yl)-1,3-dioxoisoindol-5-yl)azetidin-3-yl)-4-methylpiperidin-4-yl)phenyl)amino)pyrazin-2-carboxamide] had a DC50 of less than 1 nM.

`CC1(c2ccc(Nc3nc(N4CCCC(N5CCN(C6COC6)C5=O)C4)cnc3C(N)=O)cc2)CCN(C2CN(c3ccc4c(c3)C(=O)N(C3CCC(=O)NC3=O)C4=O)C2)CC1` (centres unmarked) [Compound 002, 3-((4-(1-(1-(2-(2,6-dioxopiperidin-3-yl)-1,3-dioxoisoindol-5-yl)azetidine-3-yl)-4-methylpiperidin-4-yl)phenyl)amino)-5-(3-(3-(oxetan-3-yl)-2-oxoimidazolin-1-yl)piperidin-1-yl)pyrazin-2-carboxamide] registered a half-maximal degradation concentration (DC50) of less than 1 nM.

In turn, `CC1(c2ccc(Nc3nc(N4CCCC(N5CCN(C6CCCCC6)C5=O)C4)cnc3C(N)=O)cc2)CCN(C2CN(c3ccc4c(c3)C(=O)N(C3CCC(=O)NC3=O)C4=O)C2)CC1` (centres unmarked) [Compound 003, 5-(3-(3-cyclohexyl-2-oxoimidazolin-1-yl)piperidin-1-yl)-3-((4-(1-(1-(2-(2,6-dioxopiperidin-3-yl)-1,3-dioxoisoindol-5-yl)azetidin-3-yl)-4-methylpiperidin-4-yl)phenyl)amino)pyrazin-2-carboxamide] registered a half-maximal degradation concentration (DC50) of less than 1 nM.

`CC1(c2ccc(Nc3nc(N4CCCC(N5CCN(C6CCOCC6)C5=O)C4)cnc3C(N)=O)cc2)CCN(C2CN(c3ccc4c(c3)C(=O)N(C3CCC(=O)NC3=O)C4=O)C2)CC1` (centres unmarked) [Compound 004, 3-((4-(1-(1-(2-(2,6-dioxopiperidin-3-yl)-1,3-dioxoisoindol-5-yl)azetidine-3-yl)-4-methylpiperidin-4-yl)phenyl)amino)-5-(3-(2-oxo-3-(tetrahydro-2H-pyran-4-yl)imidazolin-1-yl)piperidin-1-yl)pyrazin-2-carboxamide] came in with a DC50 of less than 1 nM.

`CC1(c2ccc(Nc3nc(N4CCCC(N5CC6CCCN6C5=O)C4)cnc3C(N)=O)cc2)CCN(C2CN(c3ccc4c(c3)C(=O)N(C3CCC(=O)NC3=O)C4=O)C2)CC1` (centres unmarked) [Compound 005, 3-((4-(1-(1-(2-(2,6-dioxopiperidin-3-yl)-1,3-dioxoisoindol-5-yl)azetidin-3-yl)-4-methylpiperidin-4-yl)phenyl)amino)-5-(3-(3-oxotetrahydro-1H-pyrrolo[1,2-c]imidazo 1-2(3H)-yl)piperidin-1-yl)pyrazin-2-carboxamide]: the DC50 is less than 1 nM.

`CC1(c2ccc(Nc3nc(N4CCCC(N5CC6CCCCN6C5=O)C4)cnc3C(N)=O)cc2)CCN(C2CN(c3ccc4c(c3)C(=O)N(C3CCC(=O)NC3=O)C4=O)C2)CC1` (centres unmarked) [Compound 006, 3-((4-(1-(1-(2-(2,6-dioxopiperidin-3-yl)-1,3-dioxoisoindol-5-yl)azetidin-3-yl)-4-methylpiperidin-4-yl)phenyl)amino)-5-(3-(3-oxohexahydroimidazo[1,5-a]pyridin-2(3H)-yl)piperidin-1-yl)pyrazin-2-carboxamide]: the 50% degradation concentration (DC50) was less than 1 nM.

Molecule `CCc1nc(C(N)=O)c(Nc2ccc(C3(C)CCN(C4CN(c5ccc6c(c5)C(=O)N(C5CCC(=O)NC5=O)C6=O)C4)CC3)cc2)nc1N1CCCC(N2CCN(C)C2=O)C1` (centres unmarked) [Compound 007] yielded a 50% degradation concentration (DC50) of less than 1 nM.

Consider `CN1C(=O)N(C2CCCN(c3cnc(C(N)=O)c(Nc4ccc(C5(C)CCN(C6CN(c7ccc8c(c7)C(=O)N(C7CCC(=O)NC7=O)C8=O)C6)CC5)cc4)n3)C2)C2CCCC21` (centres unmarked) [Compound 008, 3-((4-(1-(1-(2-(2,6-dioxopiperidin-3-yl)-1,3-dioxoisoindol-5-yl)azetidin-3-yl)-4-methylpiperidin-4-yl)phenyl)amino)-5-(3-(3-methyl-2-oxohexahydrocyclopenta[d]imidazol-1(2H)-yl)piperidin-1-yl)pyrazin-2-carboxamide], for which the DC50 is less than 1 nM.

In turn, `CN1C(=O)N(C2CCCN(c3cnc(C(N)=O)c(Nc4ccc(C5(C)CCN(C6CN(c7ccc8c(c7)C(=O)N(C7CCC(=O)NC7=O)C8=O)C6)CC5)cc4)n3)C2)C2CCCCC21` (centres unmarked) [Compound 009, 3-((4-(1-(1-(2-(2,6-dioxopiperidin-3-yl)-1,3-dioxoisoindol-5-yl)azetidin-3-yl)-4-methylpiperidin-4-yl)phenyl)amino)-5-(3-(3-methyl-2-oxooctahydro-1H-benzo[d]imidazol-1-yl)piperidin-1-yl)pyrazin-2-carboxamide] yielded a DC50 of less than 1 nM.

Take `CN1C(=O)N(C2CCCN(c3cnc(C(N)=O)c(Nc4ccc(C5(C)CCN(C6CN(c7ccc8c(c7)C(=O)N(C7CCC(=O)NC7=O)C8=O)C6)CC5)cc4)n3)C2)CC12CC2` (centres unmarked) [Compound 010, 3-((4-(1-(1-(2-(2,6-dioxopiperidin-3-yl)-1,3-dioxoisoindol-5-yl)azetidin-3-yl)-4-methylpiperidin-4-yl)phenyl)amino)-5-(3-(4-methyl-5-oxo-4,6-diazaspirocyclo[2.4]heptan-6-yl)piperidin-1-yl)pyrazin-2-carboxamide]: the DC50 is more than 1 nM.

Take `CN1C(=O)N(C2CCCN(c3cnc(C(N)=O)c(Nc4ccc(C5(C)CCN(C6CN(c7ccc8c(c7)C(=O)N(C7CCC(=O)NC7=O)C8=O)C6)CC5)cc4)n3)C2)CC12CCC2` (centres unmarked) [Compound 011, 3-((4-(1-(1-(2-(2,6-dioxopiperidin-3-yl)-1,3-dioxoisoindol-5-yl)azetidin-3-yl)-4-methylpiperidin-4-yl)phenyl)amino)-5-(3-(5-methyl-6-oxo-5,7-diazaspirocyclo[3.4]octan-7-yl)piperidin-1-yl)pyrazin-2-carboxamide]: the half-maximal degradation concentration (DC50) is less than 1 nM.

Take `CC1(c2ccc(Nc3nc(N4CCCC(N5CCN(C6COC6)C5=O)C4)cnc3C(N)=O)cc2)CCN(C2CCN(c3ccc4c(c3)C(=O)N(C3CCC(=O)NC3=O)C4=O)CC2)CC1` (centres unmarked) [Compound 012, 3-((4-(1′-(2-(2,6-dioxopiperidin-3-yl)-1,3-dioxoisoindol-5-yl)-4-methyl-[1,4′-bipiperidin]-4-yl)phenyl)amino)-5-(3-(3-(oxetan-3-yl)-2-oxoimidazolin-1-yl)piperidin-1-yl)pyrazin-2-carboxamide]: the 50% degradation concentration (DC50) was less than 1 nM.

As to `CC1(c2ccc(Nc3nc(N4CCCC(N5CCN(C6COC6)C5=O)C4)cnc3C(N)=O)cc2)CCN(C2CCN(c3ccc4c(c3)CN(C3CCC(=O)NC3=O)C4=O)CC2)CC1` (centres unmarked) [Compound 013, 3-((4-(1′-(2-(2,6-dioxopiperidin-3-yl)-1-oxoisoindol-5-yl)-4-methyl-[1,4′-bipiperidin]-4-yl)phenyl)amino)-5-(3-(3-(oxetan-3-yl)-2-oxoimidazolin-1-yl)piperidin-1-yl)pyrazin-2-carboxamide], the DC50 is less than 1 nM.

Molecule `CC1(c2ccc(Nc3nc(N4CCCC(N5CCN(C6COC6)C5=O)C4)cnc3C(N)=O)cc2)CCN(C2CN(c3ccc4c(c3)CN(C3CCC(=O)NC3=O)C4=O)C2)CC1` (centres unmarked) [Compound 014, 3-((4-(1-(1-(2-(2,6-dioxopiperidin-3-yl)-1-oxoisoindol-5-yl)azetidin-3-yl)-4-methylpiperidin-4-yl)phenyl)amino)-5-(3-(3-(oxetan-3-yl)-2-oxoimidazolin-1-yl)piperidin-1-yl)pyrazin-2-carboxamide] returned a half-maximal degradation concentration (DC50) of less than 1 nM.
